# Laboratory results from a melting point compilation (Tetko et al.).
row,SMILES,melting point
1,CC(C)(C)OC(=O)N1CCN(c2ccc(CN)cc2F)CC1,69 to 71 °C
2,COc1ccc(NC2=NCCS2)cc1OC,88 to 90 °C
3,CC(Cl)C(=O)Nc1cccc(Cl)c1 (stereo not drawn),98 to 100 °C
4,O=C(O)c1cnc(-c2ccc3c(c2)CCO3)s1,215 to 217 °C
5,CC(C)c1noc(-c2cc(Cl)ccc2N)n1,93 to 95 °C
6,NNc1ccc([N+](=O)[O-])cc1Cl,145 to 147 °C
7,CS(=O)(=O)Nc1cccc(I)c1,119 to 121 °C
8,CN(C)CC(O)C(F)(F)F (stereo not drawn),63 to 65 °C
9,S=C1CCCCN1,92 to 94 °C
10,O=C(O)CN1C(=O)C2C3C=CC(C3)C2C1=O (stereo not drawn),146 to 148 °C
11,CCCn1cc(C(=O)O)c2ccccc21,155 to 157 °C
12,Fc1ccc(-c2cnc(C3CCNCC3)[nH]2)cc1F,187 to 189 °C
13,Clc1nc(CN2CCCCC2)nc2sc3c(c12)CCC3,75 to 77 °C
14,Cc1cc(N)n(C2CCN(C)CC2)n1,89 to 91 °C
15,Cc1cccc2ncc(C=O)n12,128 to 130 °C
16,NNC(=O)c1ccc(-n2cnnn2)cc1,228 to 230 °C
17,O=C(O)c1csc(S(=O)(=O)Cl)c1,130 to 132 °C
18,O=C(O)C1CCCN(C(=O)c2ccc(Cl)c(Cl)c2)C1 (stereo not drawn),163 to 165 °C
19,Cc1ccc(S(=O)(=O)N2CCOCC2)cc1NC(=O)CCl,76 to 78 °C
20,CC(=O)Nc1ccc(C(=O)O)nc1,204 to 206 °C
21,O=S(=O)(Cl)c1c(Br)cc(F)cc1Br,82 to 84 °C
22,O=C(O)C(Br)C12CC3CC(CC(C3)C1)C2 (stereo not drawn),162 to 166 °C
23,CC(C)(C)OC(=O)C(C#N)c1ccc([N+](=O)[O-])cn1 (stereo not drawn),168 to 170 °C
24,COC(=O)Cc1c(C(=O)OC)sc(N)c1C(=O)OC,178 to 180 °C
25,Nc1cc(Cl)c(NC(=O)c2ccncc2)c(Cl)c1,233 to 235 °C

row,SMILES,melting point
1,CC(C)(C)OC(=O)NC1(C(=O)O)Cc2ccccc2C1,162 to 164 °C
2,Clc1cc(Cl)nc(-c2ccccn2)n1,142 to 144 °C
3,O=C1OCc2ccc(S(=O)(=O)Cl)cc21,104 to 106 °C
4,NC(=O)[C@H]1CCCC[C@H]1C(=O)O,169 to 171 °C
5,O=C(O)C(F)=C1CCCC1,83 to 85 °C
6,CC(=O)NCCc1ccc(S(N)(=O)=O)s1,144 to 146 °C
7,OC1(CCOc2ccccc2)CC1,57 to 59 °C
8,CC1(CCc2ccc(O)cc2)NC(=O)NC1=O (stereo not drawn),192 to 194 °C
9,O=C(O)CCc1nc(-c2nnc[nH]2)no1,246 to 248 °C
10,CCOc1ccc(-c2csc(=O)[nH]2)cc1,222 to 224 °C
11,CC(C)(C)c1cc(CCC(=O)O)cc(C(C)(C)C)c1O,165 to 167 °C
12,C=CCNC(=O)CN1CCNCC1,63 to 65 °C
13,COc1ccc(C(=O)O)cc1OC(F)F,179 to 181 °C
14,Nc1nc2cc3c(cc2s1)OCCCO3,218 to 220 °C
15,CC(=O)c1cc(Br)sc1C,41 to 43 °C
16,Cc1nc2ccc(Br)cc2c(Cl)c1C,99 to 101 °C
17,Cc1ccc(-n2nc(C(=O)O)c3c2CCC3)c(C)c1,198 to 200 °C
18,O=Cc1c[nH]c(-c2ccccc2)n1,159 to 161 °C
19,Cc1cnc2ccccc2c1Cl,57 to 59 °C
20,Nc1nc(C2CC2)c(Cc2ccccc2F)s1,114 to 116 °C
21,CCOC(=O)C(=O)c1c(C)[nH]c2ccccc12,127 to 129 °C
22,O=c1[nH]c(-c2cccc(Cl)c2)cs1,163 to 165 °C
23,C=CCn1c(S)nnc1-c1ccoc1C,293 to 295 °C
24,NNC(=O)c1cnn(-c2ccccc2)c1,179 to 181 °C
25,Cc1ccc(C)c(OCCCCC(=O)O)c1,56 to 58 °C

row,SMILES,melting point
1,COc1ccc(CN2C(=O)NC(=O)C2=O)cc1,168 to 170 °C
2,O=Cc1cnn2ccccc12,82 to 84 °C
3,CCOCc1cc(C(=O)O)ccc1OC,142 to 146 °C
4,CN1C(=O)/C(=N\NC(=O)c2cccnc2)c2ccccc21,195 to 197 °C
5,CCCCCCCCCCCCSc1nc2ccccc2c(=O)n1-c1ccccc1,62 to 64 °C
6,Cc1ccc(-c2nc(C)c(C(C)O)s2)cc1 (stereo not drawn),111 to 113 °C
7,Nc1nonc1C(=O)N1CCCCC1,86 to 88 °C
8,Nc1ccccc1CN1CCSCC1,72 to 74 °C
9,O=C1Nc2c(Br)cc(Cl)cc2C1=O,245 to 247 °C
10,O=C(O)CCSc1ccnc2cc(Cl)ccc12,209 to 211 °C
11,CCOc1ccc(C(CN)c2c[nH]c3ccccc23)cc1OC (stereo not drawn),114 to 116 °C
12,CCOC(=O)c1cn[nH]c1S(N)(=O)=O,171 to 173 °C
13,O=C(O)C(Oc1ccc(Cl)c(Cl)c1)c1ccccc1 (stereo not drawn),59 to 61 °C
14,CNCC(=O)Nc1ccc(C)cn1,79 to 81 °C
15,CC1(C)CCC(CC(=O)O)CC1,45 to 47 °C
16,Cc1cccc([N+](=O)[O-])c1C(=O)n1ccnc1,104 to 106 °C
17,CCCCS(=O)(=O)N1CCCCC1C(=O)O (stereo not drawn),78 to 80 °C
18,O=C(c1ccc[nH]1)N1CCCNCC1,143 to 145 °C
19,Cc1cc(C=O)c(C)n1-c1ccc(Cl)c(C(F)(F)F)c1,88 to 90 °C
20,CCC(C)C(=O)NN (stereo not drawn),88 to 90 °C
21,CC1(C)OC(=O)c2c1ccnc2Cl,158 to 160 °C
22,N#Cc1cccc(NC(=O)c2cccc(N)c2)c1,163 to 165 °C
23,Cc1cc(N)n(-c2cccc(C(F)(F)F)c2)n1,88 to 92 °C
